Measurements taken from patent US20110212899A1, “Corneal Neuritogenesis Promoter Containing Pacap and Its Derivative” (priority 2004, published 2011).
Where no end group is shown, it is not given here.

Legend:
[1] = tested on: rabbit eye (tear secretion); assay: Promoting effect on tear secretion in a rabbit (Schirmer method, Test Example 6); type: in vivo; details: 0.1% eye drops, 50 μL; from 20 minutes to 120 minutes after administration
Protocol: Changes in the tear amount when PACAP27 and peptide 24 were administered to the eyes of a rabbit were examined. Japanese white rabbits with a body weight of 1.5 to 2.0 kg purchased from Kitayama Labes Co., Ltd were used. The animals were each put in separate cages placed in a room wherein a temperature of 23±3° C. and a humidity of 55±10% were kept and a light was on for 12 hours per day (lighting at 8:00 and lights-out at 20:00), and raised after arrival until the final day of the test. The animals were given 100 g of solid feed (Labo R Stock, Nosan Corporation) per day, and could freely have tap water. PACAP27 and peptide 24 were used as test substances. […] The amount of tear secreted was measured at 8.5 minutes before administration, and at 10 minutes, 20 minutes, 30 minutes, 60 minutes and 120 minutes after the administration by a Schirmer method. […] After the tear in the lower eyelid conjunctival sac was wiped with filter paper, the amount of tear secreted in 1 minute was measured using a Schirmer's test strip (Showa Yakuhin Kako Co.). The difference between the tear secretion amount at each time point after administration of the eye drops and the tear secretion amount before administration of the eye drops was calculated as a change in the tear amount caused by the test substance. […]

[2] = tested on: rabbit cornea (corneal flap model); assay: Improving effect on reduced sensitivity of the rabbit cornea caused by using a microkeratome (2) (Test Example 7); type: in vivo; details: 0.01% eye drops, 50 μL 4 times a day for 8 weeks; 7 and 8 weeks after creation of the corneal flap
Protocol: Male Japanese white rabbits with a body weight of 1.5 to 2.0 kg purchased from Kitayama Labes Co., Ltd were used. The animals were each put in separate cages placed in a room wherein a temperature of 23±3° C. and a humidity of 55±10% were kept and a light was on for 12 hours per day (lighting at 8:00 and lights-out at 20:00), and raised after arrival until the final day of the test. The animals were given 100 g of solid feed (Labo R Stock, Nosan Corporation) per day, and could freely have tap water.
Peptide 24 was used as a test substance. The test substance was dissolved in the following vehicle solution at a concentration of 0.01% to prepare eye drops. […]
Corneal sensitivity was measured before the surgery and once a week from the first week to the eighth week after the surgery using the Cochet-Bonnet aesthesiometer.
Corneal sensitivity was determined by the frequency of eyeblink responses induced when a nylon filament attached to the Cochet-Bonnet aesthesiometer was contacted the center of the cornea of the animal. […] When the animal was judged to have corneal sensitivity twice or more, the maximum value (the longest length of the nylon filament of the aesthesiometer) was recorded as corneal sensitivity of the individual at that measurement time point. The measurement was blind trial so that an examiner could not know which group the rabbit being measured belonged to. […]

His-Ser-Asp-Ala-Ile-Phe-Thr-Asp-Ser-Tyr-Ser-Arg-Tyr-Arg-Arg-Gln-Leu-Ala-Val-Arg-Arg-Tyr-Leu-Ala-Ala-Val-Leu-Gly-Arg-Arg-NH2 (HSDAIFTDSYSRYRRQLAVRRYLAAVLGRR-NH2) [Peptide 24]
tear secretion amount compared with vehicle solution-administration group [1]: significant increase
corneal sensitivity (Cochet-Bonnet aesthesiometer) compared with control group [2]: statistically significant improving effect
